Measurements as given in US12540164B2, “Peptides for treatment and prevention of nonalcoholic fatty liver disease and fibrosis” (UNIVERSITE DE STRASBOURG, priority 2017, dated 2026).
Entries after “also recorded” stand apart in the source; their conditions may differ. Ends that are not written are not given here.

Assays:
[1] = tested on: LOXL2; assay: Circulating (plasma) LOXL2 ELISA; type: in vivo; conditions: 3 months post a unique injection; DIO-NASH mice
Text: (§1) For LOXL2 and GLP-1 measurements, the two commercially available kits: Lysyl Oxydase Like Protein 2 (LOXL2), Enzyme-linked Immunosorbent Assay Kit, Mus musculus, SEF552Mu, Cloud Clone Corp;

[2] = tested on: GLP-1; assay: Circulating GLP-1 enzyme immunoassay in plasma; type: in vivo; conditions: 11 days post single adipose tissue injection, high fat/high glucose diet male mice
Procedure: Mice were injected with a single dose of either scramble peptide or PATAD or ADPIF. 11 days post injection, the mice were euthanized, and plasma was obtained and used for determination of circulating GLP1 from mice with the indicated treatment.
as §1
RayBio Human/Mouse/Rat GLP-1 Enzyme Immunoassay Kit, EIA-GLP1, RayBiotech were used with the indicated procedures from the manufacturer.

[3] = STAM model of non-alcoholic steatohepatitis: body weight, viability and general condition; type: in vivo; conditions: STAM NASH mice, any day during the treatment period
Procedure: NASH was induced in 12 male mice by a single subcutaneous injection of 200 μg streptozotocin (STZ, Sigma-Aldrich, USA) solution 2 days after birth and feeding with high fat diet (HFD, 57 kcal % fat, Cat #HFD32, CLEA Japan, Inc., Japan) after 4 weeks of age.
The peptide was administered at a dose of 25 microgram (μg) per mouse once weekly.
Six NASH mice were subcutaneously in the adipose tissue administered vehicle supplemented with ADPIF peptide at a dose of […] per mouse once weekly from 4 to 9 weeks of age.
The viability, clinical signs and behavior were monitored daily. Body weight was recorded before the treatment. […] The animals were sacrificed at 9 weeks of age by exsanguination through direct cardiac puncture under isoflurane anesthesia (Pfizer Inc.).

[4] = tested on: AST (aspartate aminotransferase); assay: Plasma AST ELISA; type: in vivo, mice; conditions: 3 months after a single subcutaneous peptide injection, n=4
Procedure: Mice presented were euthanized and their plasma and organs were sampled for analysis. […] Cryosection of the livers were then stained with Adipored and DAPI to detect the level of lipid droplets. […] Hepatic function is assessed by two liver related strong biomarkers namely (AST (Aspartate Aminotransferase) and ALT (Alanine Aminotransferase)), whose levels increase proportionately with liver damage.
Plasma samples from the indicated mice were used to determine plasma content of either AST (aspartate aminotransferase) or […] (alanine aminotransferase) both robust indicators of liver damage were measured using commercially purchased ELISA kits. These parameters were determined according to manufacturer's procedure. • SEB214Mu (96 Tests): Enzyme-linked Immunosorbent Assay Kit For Aspartate Aminotransferase (AST), Cloud Clone Corp. • SEA207Mu (96 Tests): Enzyme-linked Immunosorbent Assay Kit For Alanine Aminotransferase (ALT), Cloud Clone Corp.

[5] = tested on: LOXL2; assay: LOXL2 ELISA on liver extracts; type: in vivo; conditions: 3 months post unique injection in subcutaneous adipose tissue, DIO male mice, n=4
Text: LOXL2 is the enzyme promoting the development of fibrotic lesions by favoring the polymerization of collagen and FABP4 is a protein involved in lipid metabolism whose level increases with increasing lipid deposition in the liver.
as §1
For the measurements on the liver extracts, the same kit for LOXL2 was used and for FABP4, the commercial kit used was the Elisa kit for Fatty Acid Binding Protein 4, Adipocyte (FABP4), SEB693Mu, Cloud Clone Corp.

[6] = tested on: ALT; assay: STAM model of non-alcoholic steatohepatitis: plasma biochemistry (ALT); type: in vivo; conditions: STAM NASH mice, 25 μg per mouse SC once weekly 4-9 wks of age, sacrifice 9 wks; n = 6
Procedure: NASH was induced in 12 male mice by a single subcutaneous injection of 200 μg streptozotocin (STZ, Sigma-Aldrich, USA) solution 2 days after birth and feeding with high fat diet (HFD, 57 kcal % fat, Cat #HFD32, CLEA Japan, Inc., Japan) after 4 weeks of age. The peptide was administered subcutaneously in the adipose tissue in a volume of […] per mouse. The peptide was administered at a dose of 25 microgram (μg) per mouse once weekly. For plasma biochemistry, non-fasting blood was collected in polypropylene tubes with anticoagulant (Novo-Heparin, Mochida Pharmaceutical Co. Ltd., Japan) and centrifuged at 1,000×g for 15 minutes at 4° C. The supernatant was collected and stored at −80° C. until use. Plasma ALT level was measured by FUJI DRI-CHEM 7000 (Fujifilm, Japan). Six NASH mice were subcutaneously in the adipose tissue administered vehicle supplemented with ADPIF peptide at a dose of […] per mouse once weekly from 4 to 9 weeks of age.

[7] = tested on: Sterol regulatory element binding transcription factor 1 (Srebf1); assay: Hepatic expression of Srebf1 (q-PCR); type: in vivo; conditions: 11 days post injection in the adipose tissue; DIO male mice; vs control
Text: AdipoRed Staining of Liver Sections

[8] = STAM model of non-alcoholic steatohepatitis: Sirius red staining, fibrosis area; type: in vivo; conditions: STAM NASH mice
Procedure: NASH was induced in 12 male mice by a single subcutaneous injection of 200 μg streptozotocin (STZ, Sigma-Aldrich, USA) solution 2 days after birth and feeding with high fat diet (HFD, 57 kcal % fat, Cat #HFD32, CLEA Japan, Inc., Japan) after 4 weeks of age. The peptide was administered subcutaneously in the adipose tissue in a volume of […] per mouse. The peptide was administered at a dose of 25 microgram (μg) per mouse once weekly. To visualize collagen deposition, Bouin's fixed liver sections were stained using picro-Sirius red solution (Waldeck, Germany). For quantitative analysis of fibrosis area, bright field images of Sirius red-stained sections were captured around the central vein using a digital camera (DFC295; Leica, Germany) at 200-fold magnification, and the positive areas in 5 fields/section were measured using ImageJ software (National Institute of Health, USA). Six NASH mice were subcutaneously in the adipose tissue administered vehicle supplemented with ADPIF peptide at a dose of […] per mouse once weekly from 4 to 9 weeks of age.

[9] = tested on: fibrotic depots in the liver; assay: Transmitted electron microscopy of liver sections for fibrotic depots; type: in vivo; conditions: DIO-NASH mice, 3 months after injection in subcutaneous adipose tissue
Procedure: For the electron microscopy imaging on the liver extracts, the samples were immersed in glutaraldehyde (2.5%) and paraformaldehyde (2.5%) in cacodylate buffer (0.1 M, pH 7.4). The samples were post-fixed in 1% osmium tetroxide, dehydrated through graded alcohol (50, 70, 90, and 100%) and propylene oxide for 30 minutes each, and embedded in Epon 812. Semithin sections were cut at 2 μm on an ultra microtome (Leica Ultracut UCT) and ultrathin sections were cut at 70 nm and contrasted with uranyl acetate and lead citrate and examined at 70 kv with a Morgagni 268D electron microscope. Images were captured digitally by Mega View III camera (Soft Imaging System).

**Q.** For “VECTTREKEVLASLDKAAFLTQLHS (not fully specified (bridges)) [ADPIF, R and S carry the stapling, preferably 2-(7-octenyl)arginine and 2-(4-pentenyl)serine]”, which “circulation (plasma) levels of LOXL2” value [1] is on record?
**A.** significantly reduced; also recorded: reduced the LOXL2 levels by half

**Q.** What about the “circulating levels of GLP-1” value [2] of the same sequence?
**A.** restored high circulating levels of GLP1, with ADPIF inducing a greater increase than PATAD; also recorded: more active than PATAD peptide; also recorded: restore GLP1 circulating levels back to lean controls

**Q.** What about the “mean body weight compared with the Vehicle group” value [3] of the same sequence?
**A.** no significant differences

**Q.** And the “circulating levels of AST” value [4]?
**A.** dramatic decrease; also recorded: effective in reducing

**Q.** What about the “hepatic protein content of LOXL2” value [5] of the same sequence?
**A.** more potent than PATAD; also recorded: significant decrease

**Q.** What about the “Plasma ALT (mean ± SD)” value [6] of the same sequence?
**A.** 54 ± 9 U/L

**Q.** What about the “hepatic expression level of Srebf1” value [7] of the same sequence?
**A.** repressed; also recorded: significantly decreased

**Q.** And the “Sirius red-positive area (mean ± SD)” value ([8]; 25 μg per mouse SC once weekly 4-9 wks of age, sacrifice 9 wks, n = 6)?
**A.** 0.62 ± 0.17%

**Q.** What about the “fibrosis area (Sirius red-positive area) compared with the Vehicle group” value ([8]; 25 μg per mouse SC once weekly 4-9 wks, Student's t-test) of the same sequence?
**A.** significant decrease

**Q.** And the “fibrotic depots / lesions in liver by transmitted electron microscopy” value [9]?
**A.** no longer detected; also recorded: No such fibrotic depots were found
